The values below come from patent US20100331348A1, “TROPANE DERIVATIVES USEFUL AS PESTICIDES” (SYNGENTA CROP PROTECTION, INC., priority 2007, published 2010).

SMILES strings stand for the structures. Where two headings read alike, the source gives them in different places.

The subject of experiment [1] is Erysiphe graminis f.sp. tritici. Kind of experiment: Erysiphe graminis f.sp. tritici (wheat powdery mildew) leaf disk assay. Format: in vivo. The note with it: Blumeria graminis, foliar, 96 h, preventive, four days after inoculation, read-out: control of fungal infection, Erysiphe graminis fsp. tritici.
Experiment [2] has as its system Plutella xylostella. Kind of experiment: Plutella xylostella (Diamond back moth) artificial diet test. The note with it: 120 h, read-out: control of Plutella xylostella.
In experiment [3] the test system is Puccinia recondita f.sp. tritici. The experiment in a line: Puccinia recondita f.sp. tritici (wheat brown rust) leaf disk assay. Format: in vivo. The note with it: foliar, 216 h, preventive, nine days after inoculation, read-out: control of fungal infection, Puccinia recondita f.sp. tritici.
Experiment [4] deals with Aedes aegypti. Kind of experiment: Aedes aegypti (Yellow fever mosquito) larvae test. The experiment is classed as in vivo. The note with it: 48 h.
Experiment [5] deals with Pyricularia oryzae. The experiment in a line: whole plant or invertebrate. Format: in vivo. The note with it: foliar, 96 h.
Setting [6] is: read-out: control of fungal infection, Pyricularia oryzae (at least 60% list).
Setting [7] is: read-out: control of fungal infection, Pyricularia oryzae (at least 80% list).

Consider `CCc1ncnc(N2C3CCC2CC(=NOCc2ccccc2Br)C3)c1Cl` [Example 5.31], for which the pest or weed control at 200 ppm in experiment [1], in experiment [2] and in experiment [3] was at least 80% each time.

With `c1cc(CON=C2CC3CCC(C2)N3c2ncnc3sccc23)ccn1` [Example 5.131], in experiment [1], the pest or weed control at 200 ppm was at least 80%. In addition, in experiment [4], the pest or weed control at 2 ppm is at least 80%.

For the molecule `CCc1ncnc(N2C3CCC2CC(=NOCc2ccc(Cl)cc2Cl)C3)c1Cl` [Example 5.50], in experiment [2], the pest or weed control at 200 ppm is at least 80%.

Regarding `CCc1ncnc(N2C3CCC2CC(=NOCc2ccc(-c4nnn(CC)n4)cc2)C3)c1Cl` [Example 5.112], the pest or weed control at 200 ppm in experiment [1] and in experiment [3] was at least 80% throughout. Further, in experiment [4], the pest or weed control at 2 ppm was at least 80%.

`CCc1ncnc(N2[C@@H]3CC[C@H]2CC(Oc2c(F)c(F)c(F)c(F)c2F)C3)c1Cl` (stereo partly drawn) [Example 2.150] had a pest or weed control at 2 ppm in experiment [4] of at least 80%.

With `c1nc(N2[C@@H]3CC[C@H]2CC(Oc2ccc4c(c2)OCO4)C3)c2ccsc2n1` (stereo partly drawn) [Example 2.29], the pest or weed control at 200 ppm in experiment [1] is at least 80%. This molecule also had a pest or weed control at 2 ppm in experiment [4] of at least 80%.

In experiment [4], `Cc1ccc(OC2C[C@H]3CC[C@@H](C2)N3c2ncnc3sccc23)cc1` (stereo partly drawn) [Example 1.7] had a pest or weed control at 2 ppm of at least 80%. Besides, the pest or weed control at 200 ppm in experiment [3] is at least 80%.

As for `CCc1ncnc(N2C3CCC2CC(=NOCc2cccc(Cl)c2F)C3)c1Cl` [Example 5.79], the pest or weed control at 200 ppm in experiment [1], in experiment [2] and in experiment [3] was at least 80% in each case.

Turning to `CCc1ncnc(N2C3CCC2CC(=NOCc2cccc(C)c2F)C3)c1Cl` [Example 5.74], the pest or weed control at 200 ppm in experiment [1], in experiment [2] and in experiment [3] was at least 80% in each case.

Turning to `CCc1ncnc(N2C3CCC2CC(=NOCc2c(C)cc(C)cc2C)C3)c1Cl` [Example 5.33], the pest or weed control at 200 ppm in experiment [1] and in experiment [2] was at least 80% each time.

Take `c1ccc(Oc2cccc(CON=C3CC4CCC(C3)N4c3ncnc4sccc34)c2)cc1` [Example 5.173]: the pest or weed control at 200 ppm was at least 60% in experiment [5] (setting [6]), at least 80% in experiment [5] (setting [7]), at least 80% in experiment [1] and at least 80% in experiment [3].

With `FC(F)(F)Oc1cccc(CON=C2CC3CCC(C2)N3c2ncnc3sccc23)c1` [Example 5.212], the pest or weed control at 200 ppm in experiment [5] (setting [6]) is at least 60%; in experiment [1] it was at least 80%; in experiment [3], at least 80%.

For `FC(F)(F)Sc1cccc(CON=C2CC3CCC(C2)N3c2ncnc3sccc23)c1` [Example 5.239], the pest or weed control at 200 ppm in experiment [5] (setting [7]), in experiment [1] and in experiment [3] was at least 80% each time.

With `CCc1ncnc(N2C3CCC2CC(=NOCc2c(Cl)cccc2Cl)C3)c1Cl` [Example 5.34], the pest or weed control at 200 ppm in experiment [1] and in experiment [2] was at least 80% throughout.

Consider `CCc1ncnc(N2[C@@H]3CC[C@H]2CC(Oc2ccc(C(C)C)cc2)C3)c1Cl` (stereo partly drawn) [Example 2.143], for which the pest or weed control at 200 ppm in experiment [2] is at least 80%.

For `CC(C)c1ccc(OC2C[C@H]3CC[C@@H](C2)N3c2ncnc3sccc23)cc1` (stereo partly drawn) [Example 2.17], the pest or weed control at 200 ppm in experiment [1] and in experiment [2] was at least 80% throughout.

On to `CCc1ncnc(N2C3CCC2CC(=NOCc2c(F)cccc2Cl)C3)c1Cl` [Example 5.90], for which the pest or weed control at 200 ppm in experiment [1] and in experiment [3] was at least 80% in each case. In addition, the pest or weed control at 2 ppm in experiment [4] was at least 80%.

For the molecule `Cc1ccc(C)c(CON=C2CC3CCC(C2)N3c2ncnc3sccc23)c1` [Example 5.203], the figures for the pest or weed control at 200 ppm in experiment [5] (setting [6]), in experiment [1] and in experiment [3] were at least 60%, at least 80% and at least 80%, respectively.

As to `Cc1cc(C)cc(CON=C2CC3CCC(C2)N3c2ncnc3sccc23)c1` [Example 5.156], the pest or weed control at 200 ppm in experiment [5] (setting [6]) was at least 60%; in experiment [1], at least 80%; in experiment [3], at least 80%.

As to `CCc1ncnc(N2C3CCC2CC(=NOCc2ccccc2C#N)C3)c1Cl` [Example 5.38], the values for the pest or weed control at 200 ppm in experiment [5] (setting [6]), in experiment [1] and in experiment [3] were at least 60%, at least 80% and at least 80%, respectively. The molecule further registered a pest or weed control at 2 ppm in experiment [4] of at least 80%.

With `CCc1ncnc(N2C3CCC2CC(=NOCc2cccc(OC)c2)C3)c1Cl` [Example 5.15], the pest or weed control at 200 ppm in experiment [1] and in experiment [3] was at least 80% throughout. This molecule also displayed a pest or weed control at 2 ppm in experiment [4] of at least 80%.

Consider `C#CCOc1ccc(C(C)(C)c2ccc(OC3C[C@H]4CC[C@@H](C3)N4c3ncnc4sccc34)cc2)cc1` (stereo partly drawn) [Example 2.225], for which the pest or weed control at 200 ppm in experiment [2] was at least 80%.

For the molecule `COC(=O)C=C1CC2CCC(C1)N2c1ncnc2sccc12` [Example 3.28], the pest or weed control at 200 ppm in experiment [5] (setting [7]) and in experiment [3] was at least 80% throughout. For the same molecule, in experiment [4], the pest or weed control at 2 ppm was at least 80%.

In the case of `Cc1nn(C)c2nccc(N3C4CCC3CC(=NOCc3ccc(Cl)cc3)C4)c12` [Example 5.256], the values for the pest or weed control at 200 ppm in experiment [5] (setting [6]), in experiment [1] and in experiment [3] were at least 60%, at least 80% and at least 80%, respectively.

`CCc1ncnc(N2C3CCC2CC(=NOCc2cccnc2)C3)c1Cl` [Example 5.25]: the pest or weed control at 200 ppm in experiment [1] was at least 80%. This molecule also registered a pest or weed control at 2 ppm in experiment [4] of at least 80%.

`CCc1ncnc(N2[C@@H]3CC[C@H]2CC(Oc2ccc(C(C)(C)C)cc2)C3)c1Cl` (stereo partly drawn) [Example 2.147]: the pest or weed control at 200 ppm in experiment [2] was at least 80%.

As to `CCc1ncnc(N2C3CCC2CC(=NOCc2ccc4ccccc4c2)C3)c1Cl` [Example 5.8], the pest or weed control at 200 ppm in experiment [1], in experiment [2] and in experiment [3] was at least 80% each time.

As to `Clc1cccc(Cl)c1CON=C1CC2CCC(C1)N2c1ncnc2sccc12` [Example 5.144], the pest or weed control at 200 ppm in experiment [5] (setting [7]), in experiment [1] and in experiment [3] was at least 80% each time. The molecule also registered a pest or weed control at 2 ppm in experiment [4] of at least 80%.

Take `Fc1cccc(CON=C2CC3CCC(C2)N3c2ncnc3sccc23)c1` [Example 5.183]: the pest or weed control at 200 ppm in experiment [1] and in experiment [3] was at least 80% each time. The molecule further displayed a pest or weed control at 2 ppm in experiment [4] of at least 80%.

Turning to `CCc1ncnc(N2C3CCC2CC(=NOCc2cc(F)cc(F)c2)C3)c1Cl` [Example 5.57], the pest or weed control at 200 ppm in experiment [5] (setting [7]), in experiment [1] and in experiment [3] was at least 80% in each case.

For the molecule `CCc1ncnc(N2[C@@H]3CC[C@H]2CC(Oc2ccc4c(c2)OCO4)C3)c1Cl` (stereo partly drawn) [Example 2.138], the pest or weed control at 2 ppm in experiment [4] was at least 80%.

`FC(F)Oc1ccccc1CON=C1CC2CCC(C1)N2c1ncnc2sccc12` [Example 5.202]: the pest or weed control at 200 ppm in experiment [5] (setting [6]) is at least 60%; in experiment [1] it was at least 80%; in experiment [3] it was at least 80%. Moreover, the pest or weed control at 2 ppm in experiment [4] is at least 80%.

`FC(F)(F)c1cccc(OC2C[C@H]3CC[C@@H](C2)N3c2ncnc3sccc23)n1` (stereo partly drawn) [Example 2.60]: the pest or weed control at 200 ppm in experiment [5] (setting [6]) was at least 60%; in experiment [1], at least 80%; in experiment [3], at least 80%.
